Source: patent publication US20080293699A1, “Inhibitors of thapsigargin-induced cell death” (priority 2007, published 2008)

Experiments:
Jnk-1 and Jnk-2 = assay: c-Jun activation by purified Jnk-1 and Jnk-2, in vitro kinase assay; assay type: biochemical; conditions: 50 μM compound
Method: C-Jun and p38 MAPK work downstream of the Ire1 pathway (see FIG. 21), we tested whether one of our hit compounds (6239507) inhibits autophosphorylation of any of kinases in this Ire1-ASK1-JNK/p38 MAPK pathway. […] An Ire1 autophosphorylation assay was performed. Immunoprecipitated Ire1 was incubated with DMSO (2%), 50 μM compound 6239507, or the positive control staurosporine (20 μM; STS) for 20 minutes at 30° C. followed by chilling on ice. 0.5 μCi of ^32P-γ-ATP was added to each tube and incubated at 30° C. for the indicated times. Kinase reactions were finished by adding sample buffer. Incorporation values of ^32P-γ-ATP were evaluated by a scintillation counter. An ASK1-MKK6-p38 coupled assay was also performed. Immunoprecipitated ASK1 was mixed with 1 μg MKK6 (Millipore) and 1 μg p38 MAPK (Sigma). Kinases were incubated with 2% DMSO, 50 μM compound 6239507, or 20 μM staurosporine (STS) in one tube for 20 minutes at 30° C. followed by ice chilling. 0.5 μCi of ^32P-γ-ATP was added to each tube and incubated at 30° C. for the indicated times. Kinase reactions were finished by adding sample buffer. Incorporation values of ^32P-γ-ATP were evaluated by a scintillation counter. C-Jun activation by purified Jnk-1 and Jnk-2 (Millipore) was confirmed with the same procedures.

[1] = test system: HeLa human cervical cancer; assay: Thapsigargin-induced death of HeLa cells, ATP content assay; assay type: cell-based
Method: (§1) In addition to CSM14.1 cells, when tested at 25 μM, Compound 5962123 protected by >50% against thapsigargin-induced death of several tumor cell lines (HeLa human cervical cancer, SW1 melanoma cell, PPC1, human prostate cancer), mouse neural stem cell C17.2 (both differentiated [neuronal phenotype] and non-differentiated [stem cell phenotype]) as determined by ATP content assay, and primary rat cortical neurons as determined by microscopy assay measuring the percentage of NeuN-immunopositive cells with either normal or apoptotic nuclear morphology (Hoechst dye staining).
(§2) For PC12, cells were stimulated with 20 ng/ml NGF for five days; for C17.2, cells were stimulated with serum reduction, and 1% N2 incubation for three days; for CSM14.1, cells were cultured at 39° C. for 5-7 days.

phospho-eIF2α = assay: Immunoblotting of eIF2α phosphorylation in thapsigargin-treated CSM14.1 cells; assay type: cell-based, rat; conditions: thapsigargin-stimulated CSM14.1, listed as CID-2878746
Text: After confirming the pathway selectivity of compounds, additional downstream assays can be performed to map the specific signal transduction pathway inhibited by the compounds. In this regard, various antibody reagents are commercially available for assessing the status of the three major pathways known to be activated by ER stress: (1) PERK, (2) Ire1, and (3) ATF6 (Xu et al., J. Clinical Invest., 115:2656-2664, 2005). Immunoblotting experiments can be performed to assess the expression or phosphorylation (using phospho-specific antibodies) of marker proteins in these pathways. […] Cell lysates were prepared and analyzed by SDS-PAGE/immunoblotting using antibodies specific for phospho-c-Jun, phospho-eIF2α, phospho-p38 MAPK, and tubulin (a loading control). […] After two hrs, cell lysates were prepared, normalized for protein content, and either analyzed by SDS-PAGE/immunoblotting using anti-p38-MAPK pan-reactive antibody or phospho-specific antibody with ECL-based detection, followed by densitometry analysis of x-ray films, normalizing phosphor-p38 MAPK relative to total p38 MAPK, or analyzed using a meso-scale instrument from MSD and a procedure in which total p38 MAPK is captured on plates, and the relative amounts of phosphorylated protein were determined using phospho-specific antibody (MSD catalog #K15112D1). […]

[2] = test system: mouse neural stem cell C17.2; assay: Thapsigargin-induced death of C17.2 cells (undifferentiated and differentiated), ATP content assay; assay type: cell-based
Method: as §1, §2

[3] = test system: differentiated CSM14.1 cells; assay: ATP content assay, thapsigargin-treated differentiated CSM14.1 cells; assay type: cell-based, rat
Method: Of the 26 compounds shown in Table 9, 16 were subsequently confirmed to protect differentiated CSM14.1 cells from TG-induced cell death. For these assays, CSM14.1 cells were differentiated by culture in 2% FBS for 7 days at non-permissive temperature of 39° C. […] CSM14.1 cells were plated at 1,500 cells per well in 96-well plates, and cultured overnight at 32° C. (permissive temperature; FIG. 14, left) or at 39° C. (non-permissive temperature, FIG. 14, right) for 7 days. […] ATP content was measured, and data were expressed as a percentage of control cells treated only with 1% DMSO (mean ±SD; n=3). Two percent FBS was used during differentiation, but all assays were performed in 10% FBS.
as §2
CSM14.1 cells were plated at 1,500 cells per well in 96-well plates and cultured at 39° C. (non-permissive temperature) for 7 days. […] ATP content was measured and data were expressed as a percentage of control cells treated with only 1% DMSO.

SW1 melanoma cell = assay: Thapsigargin-induced death of SW1 cells, ATP content assay; assay type: cell-based, human
Method: as §1, §2

[4] = thapsigargin 15 μM, ATP content, compound ≦25 μM

COc1ccc(C2CC(=O)C3=C(C2)Nc2ccccc2NC3c2cccc(Oc3ccccc3)c2)cc1OC (stereo not drawn) [Compound 6239507]
JNK's activity on c-Jun (Jnk-1 and Jnk-2): does not modulate

CCN(CC)c1ccc(C2Nc3ccccc3NC3=C2C(=O)CC(c2ccccc2)C3)cc1 (stereo not drawn) [Compound 5962123, 6-(4-diethylaminophenyl)-9-phenyl-5,6,8,9,10,11-hexahydrobenzo[c][1,5]benzodiazepin-7-one]
Final DMSO concentration needed in culture media to avoid a visible cloudy precipitate: at least 0.2 % (v/v)
Protection against thapsigargin-induced death, HeLa ([1]; 25 μM, ATP content assay): > 50%
Cytoprotective activity in thapsigargin-treated HeLa ([1]; ATP content assay): demonstrated
Cytoprotective activity, HeLa (Result) [1, 4]: + (+indicates >50% rescue of cell viability relative to untreated cells not exposed to thapsigargin at compound concentration of ≦25 μM)
Phosphorylation of eIF2alpha (Ser 51) (phospho-eIF2α): not inhibited
Activity in differentiated C17.2 cells treated with thapsigargin ([2]; 25 μM, ATP content assay): confirmed
Protection against thapsigargin-induced death, C17.2 ([2]; 25 μM, both differentiated and non-differentiated, ATP content assay): > 50%
Cytoprotective activity, C17.2 diff (Result) ([2]; differentiated, thapsigargin 10 μM, ATP content, compound ≦25 μM): + (+indicates >50% rescue of cell viability relative to untreated cells not exposed to thapsigargin at compound concentration of ≦25 μM)
Cytoprotective activity, C17.2 (Result) ([2]; undifferentiated, thapsigargin 10 μM, ATP content, compound ≦25 μM): + (+indicates >50% rescue of cell viability relative to untreated cells not exposed to thapsigargin at compound concentration of ≦25 μM)
Protection of differentiated CSM14.1 cells from thapsigargin-induced death ([3]; compound 25 μM with 10 μM thapsigargin, Salubrinal 100 μM): confirmed
Cytoprotective activity, CSM 14.1 diff (Result) ([3]; thapsigargin 15 μM, compound ≦25 μM): + (+indicates >50% rescue of cell viability relative to untreated cells not exposed to thapsigargin at compound concentration of ≦25 μM)
Protection against thapsigargin-induced death, SW1 (SW1 melanoma cell; 25 μM, ATP content assay): > 50%
Cytoprotective activity in thapsigargin-treated SW1 (SW1 melanoma cell; ATP content assay): demonstrated
Cytoprotective activity, SW1 (Result) (SW1 melanoma cell; [4]): + (+indicates >50% rescue of cell viability relative to untreated cells not exposed to thapsigargin at compound concentration of ≦25 μM)
